Source: patent US9926347B2, “Methods for engineering sugar transporter preferences” (Board of Regents, The University of Texas System, priority 2013, dated 2018)
Entries after “also recorded” stand apart in the source; their conditions may differ.

Legend:
[1] = biological target: Candida intermedia GXS1 variant Phe38 Ile39 Met40 (F38I39M40; motif G-G-F-I-M-G, SEQ ID NO: 4; parent GXS1 SEQ ID NO: 1) (Sungouiella intermedia, UniProt Q2MEV7, F40M/L39I/V38F); format: cell-based; conditions: glucose at levels of 5 g/L; S. cerevisiae EX.12
Method: Growth rate measurements—All exponential growth rates were measured and calculated according to the method previously described using a Bioscreen C (Growth Curves USA, Piscataway, N.J.) and a MATLAB script. The Bioscreen C measures online optical density for easy and accurate measurement of the growth curves of up to 200 strains at one time. Error was calculated based on biological triplicate in all cases. In all cases, the Bioscreen C was set to maintain a temperature of 30° C., employ high continuous shaking, and to measure optical density every 10 minutes. A single carbon source per well was used in all experiments save one.

[2] = biological target: T1, Candida intermedia GXS1 variant Phe38 Ile39 Met40 (F38I39M40; V38F/L39I/F40M; motif G-G-F-I-M-G, SEQ ID NO: 4; parent GXS1 SEQ ID NO: 1) (Sungouiella intermedia, UniProt Q2MEV7, F40M/L39I/V38F); assay: Radiolabeled xylose uptake kinetics, gxs1 Phe38 Ile39 Met40 triple mutant; format: cell-based
T1 construct: 14C-xylose uptake
T1 sequence (Q2MEV7 1-522 V38F/L39I/F40M): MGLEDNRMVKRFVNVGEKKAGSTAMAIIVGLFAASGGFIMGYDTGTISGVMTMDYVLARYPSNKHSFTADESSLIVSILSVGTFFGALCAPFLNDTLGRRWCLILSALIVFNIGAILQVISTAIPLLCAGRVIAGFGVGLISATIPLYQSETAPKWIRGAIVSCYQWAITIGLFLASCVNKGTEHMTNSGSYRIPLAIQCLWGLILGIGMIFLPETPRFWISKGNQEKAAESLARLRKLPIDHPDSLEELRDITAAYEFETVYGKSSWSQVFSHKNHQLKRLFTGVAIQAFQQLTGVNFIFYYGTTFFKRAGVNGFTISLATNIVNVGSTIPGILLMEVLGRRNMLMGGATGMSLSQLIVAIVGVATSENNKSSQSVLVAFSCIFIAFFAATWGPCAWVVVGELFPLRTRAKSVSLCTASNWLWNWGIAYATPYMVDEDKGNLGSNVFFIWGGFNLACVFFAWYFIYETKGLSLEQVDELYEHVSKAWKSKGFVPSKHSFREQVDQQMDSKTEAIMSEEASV
Method: (§1) Radiolabelled xylose uptake experiments were performed to quantify the improvement of transport kinetics in the Phe^38 Ile^39 Met^40 triple mutant. […] An increased KM was observed as well (FIG. 5E), a phenotype observed in previous efforts to engineer this transporter (38). Nevertheless, the binding affinity is still quite high for practical culturing at a value corresponding to around 0.1 g/L (Table 2).
(§2) Strains, media, and plasmids—Molecular cloning and standard culturing techniques with E. coli DH10B were performed according to Sambrook (46). S. cerevisiae EX.12 was used for all yeast experiments and was constructed as previously described (38). All transporters were cloned into p414-TEF, a standard yeast shuttle vector created by Mumberg (47). Yeast synthetic complete media was used for culture and experimental growth media. CSM-Trp was used when S. cerevisiae EX.12 was carrying a transporter. Carbon sources were provided at 20 g/L.
(§3) Radiolabeled xylose uptake—Uptake of ^14C labeled xylose was used to determine the Michaelis-Menten parameters for C. intermedia GXS1 and the Phe^38 Ile^39 Met^40 triple mutant. The method was performed as previously described (38).

[3] = biological target: T2, Candida intermedia GXS1 transporter protein, wild type, SEQ ID NO: 1 (Sungouiella intermedia, UniProt Q2MEV7); assay: Radiolabeled xylose uptake kinetics, wild type GXS1; format: cell-based; conditions: gene in p414-TEF, S. cerevisiae EX.12
T2 construct: 14C-xylose uptake
T2 sequence (Q2MEV7 1-522): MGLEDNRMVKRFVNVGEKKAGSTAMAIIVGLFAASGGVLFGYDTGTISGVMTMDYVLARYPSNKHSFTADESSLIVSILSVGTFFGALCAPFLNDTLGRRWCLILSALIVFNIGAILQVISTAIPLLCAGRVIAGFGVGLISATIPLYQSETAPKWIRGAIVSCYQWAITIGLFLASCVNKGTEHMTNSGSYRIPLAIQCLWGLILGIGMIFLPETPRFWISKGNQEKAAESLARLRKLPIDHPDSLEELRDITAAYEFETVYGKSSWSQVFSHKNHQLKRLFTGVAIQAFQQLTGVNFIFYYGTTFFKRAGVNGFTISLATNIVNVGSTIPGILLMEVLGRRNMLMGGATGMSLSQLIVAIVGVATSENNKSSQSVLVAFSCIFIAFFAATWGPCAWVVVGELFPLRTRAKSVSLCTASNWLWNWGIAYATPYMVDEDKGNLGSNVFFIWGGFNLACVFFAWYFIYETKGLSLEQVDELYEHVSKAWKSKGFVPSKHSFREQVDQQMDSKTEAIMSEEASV
Method: as §1, §2, §3

[4] = system: Candida intermedia GXS1 variant Phe38 Ile39 Met40 (F38I39M40; V38F/L39I/F40M; motif G-G-F-I-M-G, SEQ ID NO: 4; parent GXS1 SEQ ID NO: 1); assay: Radiolabeled xylose uptake kinetics, gxs1 Phe38 Ile39 Met40 triple mutant; format: cell-based; conditions: triple mutant versus wild type GXS1
Method: as §1, §2, §3

[5] = substrate: OC1OC[C@@H](O)[C@H](O)[C@H]1O; assay: as above; format: cell-based
Method: as §1, §2, §3

[6] = substrate: OC1OC[C@@H](O)[C@H](O)[C@H]1O; assay: Radiolabeled xylose uptake kinetics, wild type GXS1; format: cell-based, Candida intermedia; conditions: other: radiolabeled xylose uptake; gene in p414-TEF; S. cerevisiae EX.12
Method: as §1, §2, §3

OC[C@H]1OC(O)[C@H](O)[C@@H](O)[C@@H]1O (stereo partly shown) [glucose]
inhibition of xylose growth by glucose [1]: still appear to inhibit xylose growth | radiolabelled xylose uptake in the presence of glucose (inhibition by glucose) ([2]; glucose concentration not stated): no radiolabelled xylose uptake was detected

OC1OC[C@@H](O)[C@H](O)[C@H]1O (stereo partly shown) [xylose]
VMAX (xylose) [3]: 7.23 ± 0.6 nmol min^−1 gDCW^−1 | VMAX (xylose) ([2]; radiolabeled xylose uptake, gene in p414-TEF, S. cerevisiae EX.12): 15.01 ± 2.38 nmol min^−1 gDCW^−1 | Km ([2]; read-out: binding affinity / KM (xylose), as g/L, conversion of KM): ~666 µM | KM change compared to wild type (xylose) [4]: increased KM; also recorded: significantly increased | Vmax change compared to wild type (xylose) [4]: doubling in Vmax

B1: Candida intermedia GXS1 variant Phe38 Ile39 Met40 (F38I39M40; V38F/L39I/F40M; motif G-G-F-I-M-G, SEQ ID NO: 4; parent GXS1 SEQ ID NO: 1) (Sungouiella … (protein)
chain: MGLEDNRMVKRFVNVGEKKAGSTAMAIIVGLFAASGGFIMGYDTGTISGVMTMDYVLARYPSNKHSFTADESSLIVSILSVGTFFGALCAPFLNDTLGRRWCLILSALIVFNIGAILQVISTAIPLLCAGRVIAGFGVGLISATIPLYQSETAPKWIRGAIVSCYQWAITIGLFLASCVNKGTEHMTNSGSYRIPLAIQCLWGLILGIGMIFLPETPRFWISKGNQEKAAESLARLRKLPIDHPDSLEELRDITAAYEFETVYGKSSWSQVFSHKNHQLKRLFTGVAIQAFQQLTGVNFIFYYGTTFFKRAGVNGFTISLATNIVNVGSTIPGILLMEVLGRRNMLMGGATGMSLSQLIVAIVGVATSENNKSSQSVLVAFSCIFIAFFAATWGPCAWVVVGELFPLRTRAKSVSLCTASNWLWNWGIAYATPYMVDEDKGNLGSNVFFIWGGFNLACVFFAWYFIYETKGLSLEQVDELYEHVSKAWKSKGFVPSKHSFREQVDQQMDSKTEAIMSEEASV
notes: 14C-xylose uptake
Km ([5]; other: conversion of KM): 0.1 g/L | Km ([5]; other: radiolabeled xylose uptake, gene in p414-TEF, S. cerevisiae EX.12): 721 ± 116 µM

B2: Candida intermedia GXS1 transporter protein, wild type, SEQ ID NO: 1 (Sungouiella intermedia) (protein)
chain: MGLEDNRMVKRFVNVGEKKAGSTAMAIIVGLFAASGGVLFGYDTGTISGVMTMDYVLARYPSNKHSFTADESSLIVSILSVGTFFGALCAPFLNDTLGRRWCLILSALIVFNIGAILQVISTAIPLLCAGRVIAGFGVGLISATIPLYQSETAPKWIRGAIVSCYQWAITIGLFLASCVNKGTEHMTNSGSYRIPLAIQCLWGLILGIGMIFLPETPRFWISKGNQEKAAESLARLRKLPIDHPDSLEELRDITAAYEFETVYGKSSWSQVFSHKNHQLKRLFTGVAIQAFQQLTGVNFIFYYGTTFFKRAGVNGFTISLATNIVNVGSTIPGILLMEVLGRRNMLMGGATGMSLSQLIVAIVGVATSENNKSSQSVLVAFSCIFIAFFAATWGPCAWVVVGELFPLRTRAKSVSLCTASNWLWNWGIAYATPYMVDEDKGNLGSNVFFIWGGFNLACVFFAWYFIYETKGLSLEQVDELYEHVSKAWKSKGFVPSKHSFREQVDQQMDSKTEAIMSEEASV
notes: 14C-xylose uptake
Km [6]: 25.6 ± 65.9 µM
